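Values below derive from 48-hour exposures of cells grown in 96-well plates, with endpoints linearly interpolated between the two concentrations bracketing the appropriate inhibition level. GI50 marks 50% less growth. TGI denotes the concentration required for complete inhibition of growth.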
Columns and labels:
Assay in all cases: NCI-60 cell line screen, 48 h
SK-MEL-5 melanoma = system: SK-MEL-5 melanoma
NCI-H226 lung = system: NCI-H226 lung
EKVX NSCLC = system: EKVX NSCLC
786-0 renal = system: 786-0 renal
ACHN renal = system: ACHN renal
SN12C renal = system: SN12C renal
UACC-257 melanoma = system: UACC-257 melanoma
SNB-19 CNS = system: SNB-19 CNS
HCC-2998 colon = system: HCC-2998 colon
SK-OV-3 ovarian = system: SK-OV-3 ovarian
BT-549 breast = system: BT-549 breast
COLO 205 colon = system: COLO 205 colon
HL-60(TB) leukemia = system: HL-60(TB) leukemia
MDA-MB-231 breast = system: MDA-MB-231 breast
OVCAR-4 ovarian = system: OVCAR-4 ovarian
OVCAR-8 ovarian = system: OVCAR-8 ovarian
NCI-H23 lung = system: NCI-H23 lung
M14 melanoma = system: M14 melanoma
OVCAR-5 ovarian = system: OVCAR-5 ovarian
SF-268 CNS = system: SF-268 CNS
MOLT-4 leukemia = system: MOLT-4 leukemia
UACC-62 melanoma = system: UACC-62 melanoma
RXF 393 renal = system: RXF 393 renal
SNB-75 CNS = system: SNB-75 CNS
HOP-62 NSCLC = system: HOP-62 NSCLC
A549 NSCLC = system: A549 NSCLC
T-47D breast = system: T-47D breast
PC-3 prostate = system: PC-3 prostate
CCRF-CEM leukemia = system: CCRF-CEM leukemia
NCI-H460 lung = system: NCI-H460 lung
RPMI-8226 leukemia = system: RPMI-8226 leukemia
A498 renal = system: A498 renal
MDA-MB-435 = system: MDA-MB-435
K-562 leukemia = system: K-562 leukemia
HOP-92 NSCLC = system: HOP-92 NSCLC
MALME-3M melanoma = system: MALME-3M melanoma
NCI/ADR-RES ovarian = system: NCI/ADR-RES ovarian
MCF7 breast = system: MCF7 breast
CAKI-1 renal = system: CAKI-1 renal
OVCAR-3 ovarian = system: OVCAR-3 ovarian
NCI-H522 lung = system: NCI-H522 lung
IGROV1 ovarian = system: IGROV1 ovarian
LOX IMVI melanoma = system: LOX IMVI melanoma
HCT-116 colon = system: HCT-116 colon
HT29 colon = system: HT29 colon
SK-MEL-2 melanoma = system: SK-MEL-2 melanoma
SW-620 colon = system: SW-620 colon
KM12 colon = system: KM12 colon
DU-145 prostate = system: DU-145 prostate
SK-MEL-28 melanoma = system: SK-MEL-28 melanoma
TK-10 renal = system: TK-10 renal
SF-539 CNS = system: SF-539 CNS
HS 578T breast = system: HS 578T breast
HCT-15 colon = system: HCT-15 colon
SF-295 CNS = system: SF-295 CNS
UO-31 renal = system: UO-31 renal

CCOc1cccc(-c2nc(N)nc(Nc3ccccc3SSc3ccccc3Nc3nc(N)nc(-c4cccc(OCC)c4)n3)n2)c1
GI50 (SK-MEL-5 melanoma): 6.8 µM
TGI (SK-MEL-5 melanoma): > 100 µM
GI50 (NCI-H226 lung): 4.5 µM
TGI (NCI-H226 lung): > 100 µM
GI50 (EKVX NSCLC): 3.56 µM
TGI (EKVX NSCLC): > 100 µM
GI50 (786-0 renal): 5.03 µM
TGI (786-0 renal): 69.7 µM
GI50 (ACHN renal): 2.14 µM
TGI (ACHN renal): 5.8 µM
GI50 (SN12C renal): 2.32 µM
TGI (SN12C renal): 14.8 µM
GI50 (UACC-257 melanoma): > 100 µM
TGI (UACC-257 melanoma): > 100 µM
GI50 (SNB-19 CNS): 4.94 µM
TGI (SNB-19 CNS): > 100 µM
GI50 (HCC-2998 colon): > 100 µM
TGI (HCC-2998 colon): > 100 µM
GI50 (SK-OV-3 ovarian): 4.87 µM
TGI (SK-OV-3 ovarian): > 100 µM
GI50 (BT-549 breast): 4.97 µM
TGI (BT-549 breast): > 100 µM
GI50 (COLO 205 colon): 35.8 µM
TGI (COLO 205 colon): > 100 µM
GI50 (HL-60(TB) leukemia): 2.14 µM
TGI (HL-60(TB) leukemia): 6.09 µM
GI50 (MDA-MB-231 breast): 3.72 µM
TGI (MDA-MB-231 breast): 27 µM
GI50 (OVCAR-4 ovarian): 5.87 µM
TGI (OVCAR-4 ovarian): > 100 µM
GI50 (OVCAR-8 ovarian): 4.43 µM
TGI (OVCAR-8 ovarian): > 100 µM
GI50 (NCI-H23 lung): 3.79 µM
TGI (NCI-H23 lung): > 100 µM
GI50 (M14 melanoma): 4.1 µM
TGI (M14 melanoma): > 100 µM
GI50 (OVCAR-5 ovarian): 3.42 µM
TGI (OVCAR-5 ovarian): 44.1 µM
GI50 (SF-268 CNS): 3.84 µM
TGI (SF-268 CNS): > 100 µM
GI50 (MOLT-4 leukemia): 2.61 µM
TGI (MOLT-4 leukemia): > 100 µM
GI50 (UACC-62 melanoma): 2.28 µM
TGI (UACC-62 melanoma): 5.29 µM
GI50 (RXF 393 renal): 2.86 µM
TGI (RXF 393 renal): 8.75 µM
GI50 (SNB-75 CNS): > 100 µM
TGI (SNB-75 CNS): > 100 µM
GI50 (HOP-62 NSCLC): 1.57 µM
TGI (HOP-62 NSCLC): 4.46 µM
GI50 (A549 NSCLC): 2.02 µM
TGI (A549 NSCLC): 4.78 µM
GI50 (T-47D breast): 2.42 µM
TGI (T-47D breast): > 100 µM
GI50 (PC-3 prostate): 0.671 µM
TGI (PC-3 prostate): 15.3 µM
GI50 (CCRF-CEM leukemia): 2.2 µM
TGI (CCRF-CEM leukemia): > 100 µM
GI50 (NCI-H460 lung): 3.03 µM
TGI (NCI-H460 lung): > 100 µM
GI50 (RPMI-8226 leukemia): 2.18 µM
TGI (RPMI-8226 leukemia): 6.89 µM
GI50 (A498 renal): 8.24 µM
TGI (A498 renal): > 100 µM
GI50 (MDA-MB-435): 8.1 µM
TGI (MDA-MB-435): > 100 µM
GI50 (K-562 leukemia): 3.33 µM
TGI (K-562 leukemia): > 100 µM
GI50 (HOP-92 NSCLC): 2.77 µM
TGI (HOP-92 NSCLC): 9.86 µM
GI50 (MALME-3M melanoma): 5.63 µM
TGI (MALME-3M melanoma): > 100 µM
GI50 (NCI/ADR-RES ovarian): 3.32 µM
TGI (NCI/ADR-RES ovarian): > 100 µM
GI50 (MCF7 breast): 4.97 µM
TGI (MCF7 breast): > 100 µM
GI50 (CAKI-1 renal): 3.29 µM
TGI (CAKI-1 renal): 28.3 µM
GI50 (OVCAR-3 ovarian): 5.37 µM
TGI (OVCAR-3 ovarian): > 100 µM
GI50 (NCI-H522 lung): 7.77 µM
TGI (NCI-H522 lung): 48.9 µM
GI50 (IGROV1 ovarian): 3.65 µM
TGI (IGROV1 ovarian): 97 µM
GI50 (LOX IMVI melanoma): 1.51 µM
TGI (LOX IMVI melanoma): 3.22 µM
GI50 (HCT-116 colon): 3.95 µM
TGI (HCT-116 colon): > 100 µM
GI50 (HT29 colon): 55.8 µM
TGI (HT29 colon): > 100 µM
GI50 (SK-MEL-2 melanoma): 6.12 µM
TGI (SK-MEL-2 melanoma): > 100 µM
GI50 (SW-620 colon): 4.56 µM
TGI (SW-620 colon): > 100 µM
GI50 (KM12 colon): 3.53 µM
TGI (KM12 colon): > 100 µM
GI50 (DU-145 prostate): 7.5 µM
TGI (DU-145 prostate): > 100 µM
GI50 (SK-MEL-28 melanoma): 10.7 µM
TGI (SK-MEL-28 melanoma): > 100 µM
GI50 (TK-10 renal): 6.26 µM
TGI (TK-10 renal): 86.8 µM
GI50 (SF-539 CNS): 9.2 µM
TGI (SF-539 CNS): > 100 µM
GI50 (HS 578T breast): 6.37 µM
TGI (HS 578T breast): > 100 µM
GI50 (HCT-15 colon): 2.18 µM
TGI (HCT-15 colon): > 100 µM
GI50 (SF-295 CNS): 3.92 µM
TGI (SF-295 CNS): > 100 µM
GI50 (UO-31 renal): 1.68 µM
TGI (UO-31 renal): 3.16 µM

Source: PubChem BioAssay (NCI)
